The nature of data set [1]: Dynamic light scattering (DLS) of liposome suspensions. Type of data set: physicochemical. Conditions: for Dia. (vesicle diameter, most abundant population) / Rel. pop. (most abundant population) / Dia. (vesicle diameter, second population) / Rel. pop. (second population): aqueous suspension; for Dia. (vesicle diameter, most abundant population): POPC with 5 mol % POPG extruded through 100 nm membrane, SiPC not extruded; for Rel. pop. (most abundant population): first population; for polydispersity: most abundant population, liposomes not extruded. As for the experimental part: POPC ULVs contain 5 mol % of 1-palmitoyl-2-oleoyl-sn-3-glcyercophosphoglycerol (POPG) and were extruded through a 100 nm polycarbonate membrane. SiPC suspensions were not extruded.
(§1) SiPCs were prepared as described above in Example 1. Aqueous dispersions of SiPCs were prepared by five freeze-thaw cycles to give opaque suspensions of vesicles suitable for Small-angle X-ray scattering (SAXS) analysis. Dispersion particle size was determined by dynamic light scattering (DLS) with a Nano Zetasizer ZS90 (Malvern Instruments, Worcestershire, U.K.).
(§2) 1-Palmitoyl-2-oleoyl-sn-3-glycercophosphocholine (POPC) and 1-palmitoyl-2-oleoyl-sn-3-glcyercophosphoglycerol (POPG) were purchased from Avanti Polar Lipids (Alabaster, Ala.) and used as received. POPC and 5 mol % POPG were co-dissolved in a chloroform:methanol (3:1) mixture. POPC was doped with 5 mol % POPG, to minimize pauci-lamellar vesicle contamination. Solvent was removed under a gentle stream of dry nitrogen gas then was put under vacuum for 8 hours. POPC:POPG film was hydrated with ultrapure water to a concentration of ˜30 mg/mL. ULVs were prepared using a manual miniextruder (Avanti Polar Lipids, Alabaster, Ala.), assembled with a 100 nm pore-diameter polycarbonate filter. The lipid suspension was passed through the filter 31 times. SAXS data were collected at the P12 BioSAXS beamline at the storage ring PETRA III (synchrotron DESY, Hamburg)^26 at a temperature of 20° C. SAXS data were visualized, averaged and the background was subtracted using ATSAS^27 and modelled using the method of Pabst et al.^28 The data was fit utilizing a standard non-linear least-squares fitting (NLSF) scheme within Origin (OriginLab, USA). Vesicle size was determined by dynamic light scattering (DLS) with a Nano Zetasizer ZS90 (Malvern Instruments, Worcestershire, U.K.)
The diameter standard deviation (a) for the vesicles (most abundant population) was below 20% of the diameter for liposomes of 1,2-SiPC and 1,3-SiPC, thus implying very low polydispersities of 0.16 and 0.19 respectively.

A short description of data set [2]: Langmuir isotherms of phospholipid monolayers. Type of data set: physicochemical. Particulars: 21.5° C. An excerpt: The interfacial phase behaviour of lipids and phospholipids is an important area of study. Data from Langmuir isotherms can give insight into packing behaviour and collapse mechanisms of phospholipid monolayers. FIG. 1 presents the Langmuir isotherms for 1,2-SiPC, 1,3-SiPC, 1,2-dipalmitoyl-sn-3-phosphocholine (DPPC), and 1-palmitoyl-2-oleoyl-sn-3-phosphocholine (POPC). DPPC and POPC are biologically relevant lipids that are commonly used as model systems in the study of membrane topology. These two lipids differ in the degree of unsaturation with POPC containing a single unit of unsaturation in the oleic acid FA chain. […] The surface area at the collapse of 1,2-SiPC was approximately 70 Å^2 and that for 1,3-SiPC was 87 Å^2. Both of these values are larger than those observed for DPPC and POPC.
While not wishing to be bound by theory, the larger size of the siloxane tails strongly affects the mean molecular area of the lipid as well as the lipid area at monolayer collapse. Furthermore, the rotational freedom of the siloxane unit leads to behaviour similar to that for unsaturated phospholipids such as POPC.

The nature of data set [3]: Small-angle X-ray scattering (SAXS) of vesicle suspensions, 3-Gaussian electron density model. Type of data set: physicochemical. Conditions: for derived lipid volume / derived lipid volume relative to the volume from the atomic covalent radii: 3-Gaussian model; for ρC (fit parameter, hydrocarbon chain electron density relative to water) / zH (fit parameter, position of headgroup Gaussian) / σC (fit parameter, standard deviation of hydrocarbon Gaussian) / σH (fit parameter, standard deviation of headgroup Gaussian): 20° C, POPC ULVs with 5 mol % POPG; for ρC (fit parameter, hydrocarbon chain electron density relative to water): extruded 100 nm, SiPC freeze-thaw; for ρC (fit parameter, hydrocarbon chain electron density relative to water) / SAXS curve: bilayer-bilayer structure factor (Bragg peak), lamellarity: not extruded; for zH (fit parameter, position of headgroup Gaussian) / σC (fit parameter, standard deviation of hydrocarbon Gaussian) / σH (fit parameter, standard deviation of headgroup Gaussian): extruded, SiPC not extruded; for SAXS curve: bilayer-bilayer structure factor (Bragg peak), lamellarity: freeze-thaw liposomes. As for the experimental part:
as §1, §2
SAXS is sensitive to the presence of multilamellar vesicles (MLVs) and is used to evaluate the presence of MLVs. Shown in FIG. 2 are SAXS data for an about 40 mM POPC vesicle suspension in water as 100 nm ULV (black) and MLVs (gray). For MLVs, density correlations between the stacked bilayers give rise to a bilayer-bilayer structure factor also known as Bragg Peaks at a length scale corresponding to integer multiples of the lamellar repeat distance (e.g., the first Bragg order at q˜0.1 Å^−1, corresponding to a lamellar repeat distance of ˜63 Å).
The scattering regime where bilayer structure (as opposed to vesicle sphericity) dominates the form factor is of most interest as information about vesicle size is obtained from the DLS. The scattered intensity of a dilute vesicle suspension is given by:
The functional model chosen to describe the electron density of the siloxane phospholipids is the three Gaussian model as outlined by Pabst et al. (2000).^28 In this model, the electron distribution is the summation of the headgroups, described by a single Gaussian (in total 2, one for each leaflet of the bilayer) and a Gaussian representing the hydrocarbon chains, Eqn 2.
The position of the Gaussian peak is at zi where i=H or C and zC=0, with a standard deviation of σi. For simplicity, ρH−ρw and ρC−ρw are referred to herein as ρH and ρC respectively. The form factor of this electron density model can then be calculated analytically by applying Eqn 3: F(q)=∫ρ(z)exp(iqz)dz (3) which yields:
Only the cosine terms remain due to the centrosymmetric nature of a single component lipid bilayer. A benefit of this method is that structural parameters can be derived from simple geometric relationships, without the need of volumetric data. Typically area per lipid AL is one of the more desirable structural parameters to be extracted from the data. To begin, the transverse structure of the bilayer is derived (along the bilayer normal), such as the hydrocarbon length (dC) and the headgroup thickness (dH). Simply, dH can be estimated from the full width at half maximum (FWHM) of the Gaussian describing the headgroups. Using dH, dC can be determined as: […]

For data set [4] the following is noted: fixed using experimentally determined volume, cited from earlier work; for ρH (fit parameter, headgroup electron density relative to water): 20° C.
For data set [5] the following is noted: literature SDP model; cited from earlier work.
The conditions of data set [6]: literature value; cited from earlier work.
[7] abbreviates: geometrically derived from SAXS fit.

Several values for one entry are separate records, joined by “and”; a condition that tells them apart may be missing. Identical values can stand only once. Like-named read-outs stand apart in the source and are kept apart here. Marks after values point to notes of the source that are not given here.

Regarding `C[N+](C)(C)CCOP(=O)([O-])OCC(COC(=O)CCCCCCCCC[Si](C)(C)O[Si](C)(C)O[Si](C)(C)C)OC(=O)CCCCCCCCC[Si](C)(C)O[Si](C)(C)O[Si](C)(C)C` (racemic) [1,2-SiPC], in data set [1], the “Dia. (vesicle diameter, most abundant population)” value was 193.7 nm; the “Rel. pop. (most abundant population)” value amounted to 79%; the “Dia. (vesicle diameter, second population)” value is reported as 949.8 nm; the “Rel. pop. (second population)” value turned out to be 21%. The molecule further gave a polydispersity in data set [1] of 0.16. In addition, the “surface area at the collapse of the monolayer” value in data set [2] was “approximately 70 Å^2”. Also, in data set [3], the derived lipid volume is 1574 Å^3; the “derived lipid volume relative to the volume from the atomic covalent radii” value stood at 7 factor; the “ρC (fit parameter, hydrocarbon chain electron density relative to water)” value is recorded as −0.106 ± 0.002 e/Å^3; the “zH (fit parameter, position of headgroup Gaussian)” value (“zH” below) amounted to 18.2 ± 0.05 Å. Besides, in data set [3], the “σC (fit parameter, standard deviation of hydrocarbon Gaussian)” value is given as 14.1 ± 0.2 Å; the “σH (fit parameter, standard deviation of headgroup Gaussian)” value is reported as 4.6 ± 0.1 Å; the “SAXS curve: bilayer-bilayer structure factor (Bragg peak), lamellarity” value is “without the presence of a bilayer-bilayer structure factor (Bragg Peak)”. Also, in data set [3] (setting [7]), the “AL (area per lipid)” value is reported as 69 ± 2 Å^2, the “VC (hydrocarbon volume)” value is given as 1243 ± 42 Å^3, the “dB (bilayer thickness)” value came out at 45.5 ± 0.3 Å and the “dC (hydrocarbon length)” value came out at 9.9 ± 0.5 Å. In data set [3] (setting [7]), the “dH (headgroup thickness)” value was determined as 9.1 ± 0.3 Å and the “dHH (headgroup-headgroup distance)” value is 36.3 ± 0.1 Å. In data set [4], the “ρH (fit parameter, headgroup electron density relative to water)” value is listed as 0.1609^a e/Å^3 and the “VH (PC headgroup volume)” value is given as 331^a Å^3.
As for `C[N+](C)(C)CCOP(=O)([O-])OC(COC(=O)CCCCCCCCC[Si](C)(C)O[Si](C)(C)O[Si](C)(C)C)COC(=O)CCCCCCCCC[Si](C)(C)O[Si](C)(C)O[Si](C)(C)C` [1,3-SiPC], in data set [1], the “Dia. (vesicle diameter, most abundant population)” value is given as 123.4 nm; the “Rel. pop. (most abundant population)” value is reported as 89%; the “Dia. (vesicle diameter, second population)” value was found to be 684.9 nm; the “Rel. pop. (second population)” value was 11%. In data set [1], this molecule returned a polydispersity of 0.19. Moreover, the “surface area at the collapse of the monolayer” value in data set [2] is given as 87 Å^2. Moreover, in data set [3], the derived lipid volume stood at 1577 Å^3; the “derived lipid volume relative to the volume from the atomic covalent radii” value worked out at 7 factor; the “ρC (fit parameter, hydrocarbon chain electron density relative to water)” value was −0.101 ± 0.003 e/Å^3; the “zH” value came to 17.6 ± 0.1 Å. Also, in data set [3], the “σC (fit parameter, standard deviation of hydrocarbon Gaussian)” value is reported as 13.3 ± 0.3 Å; the “σH (fit parameter, standard deviation of headgroup Gaussian)” value is given as 4.3 ± 0.2 Å; the “SAXS curve: bilayer-bilayer structure factor (Bragg peak), lamellarity” value is reported as “without the presence of a bilayer-bilayer structure factor (Bragg Peak)”. Also, in data set [3] (setting [7]), the “AL (area per lipid)” value turned out to be 72 ± 4 Å^2, the “VC (hydrocarbon volume)” value was determined as 1246 ± 81 Å^3, the “dB (bilayer thickness)” value is recorded as 43.9 ± 0.4 Å and the “dC (hydrocarbon length)” value turned out to be 13.2 ± 0.2 Å. In addition, in data set [3] (setting [7]), the “dH (headgroup thickness)” value is 8.6 ± 0.5 Å and the “dHH (headgroup-headgroup distance)” value was 35.3 ± 0.1 Å. Moreover, in data set [4], the “ρH (fit parameter, headgroup electron density relative to water)” value was 0.1609^a e/Å^3 and the “VH (PC headgroup volume)” value is on record as 331^a Å^3.
Consider `CCCCCCCC/C=C\CCCCCCCC(=O)O[C@H](COC(=O)CCCCCCCCCCCCCCC)COP(=O)([O-])OCC[N+](C)(C)C` [POPC, 1-palmitoyl-2-oleoyl-sn-3-phosphocholine, reference compound], for which, in data set [1], the “Dia. (vesicle diameter, most abundant population)” value turned out to be 98.1 nm and the “Rel. pop. (most abundant population)” value was found to be 100%. Further, in data set [3], the “ρC (fit parameter, hydrocarbon chain electron density relative to water)” value is recorded as −0.152 ± 0.002 e/Å^3; the “zH” value amounted to 18.16 ± 0.08 Å; the “σC (fit parameter, standard deviation of hydrocarbon Gaussian)” value is 6.9 ± 0.2 Å; the “σH (fit parameter, standard deviation of headgroup Gaussian)” value came out at 3.77 ± 0.06 Å. The molecule further had a lamellar repeat distance in data set [3] (about 40 mM POPC MLVs in water, first Bragg order at q~0.1 Å^-1) of about 63 Å. Further, in data set [3] (setting [7]), the “AL (area per lipid)” value is 58.9 ± 2^ Å^2; the “VC (hydrocarbon volume)” value turned out to be 961 ± 27 Å^3; the “dB (bilayer thickness)” value is 43.7 Å and 43.7 ± 0.2 Å; the “dC (hydrocarbon length)” value was 14.4 Å and 14.4 ± 0.1 Å. Besides, in data set [3] (setting [7]), the “dH (headgroup thickness)” value amounted to 7.5 ± 0.2 Å; the “dHH (headgroup-headgroup distance)” value is 36.3 Å and 36.3 ± 0.1 Å; the “derived AL (area per lipid)” value amounted to 58.9±2 Å. In data set [5], the “AL, SDP model derived” value was 62.7±1 Å; the “dB (bilayer thickness), SDP analysis” value is reported as 39.8 Å; the “dC (hydrocarbon length), SDP analysis” value is 14.6 Å; the “dHH (headgroup-headgroup distance), SDP analysis” value is on record as 37.4 Å. Also, in data set [4], the “ρH (fit parameter, headgroup electron density relative to water)” value is given as 0.1609^a e/Å^3 and the “VH (PC headgroup volume)” value was 331^a Å^3.
`CC(C)CCCC(C)CCCC(C)CCCC(C)CC(=O)OC[C@H](COP(=O)([O-])OCC[N+](C)(C)C)OC(=O)CC(C)CCCC(C)CCCC(C)CCCC(C)C` (stereo partly drawn) [diPhyPC, 1,2-diphytanoyl-sn-glycero-3-phosphatidylcholine]: in data set [6], the “AL (area per lipid)” value is 78 Å^2.

The record behind these values is US10294253B2, “Siloxane-containing phospholipids, compositions and uses thereof” (priority 2016, dated 2019).
